Measurements published in ChEMBL document CHEMBL1201862, “PubChem BioAssay data set” (2004).
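A five-concentration, 48-hour dose response in 96-well plates underlies each endpoint, interpolated linearly between surrounding concentrations. Here, GI50 denotes the concentration required for 50% inhibition of growth.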 Activity calls are given as the source filed them. Rule as the data show it: active = GI50 up to about 1.1 µM and inactive = higher.

How the values were obtained:
Test in all cases: growth of human tumour cells (NCI), 48 h
ACHN = test system: ACHN
M14 = test system: M14
RPMI-8226 = test system: RPMI-8226
SNB-75 = test system: SNB-75
SNB-78 = test system: SNB-78
786-0 = test system: 786-0
LXFL 529 = test system: LXFL 529
UACC-62 = test system: UACC-62
HT-29 = test system: HT-29
HOP-18 = test system: HOP-18
SF-268 = test system: SF-268
DMS-273 = test system: DMS-273
SF-295 = test system: SF-295
EKVX = test system: EKVX
NCI-H522 = test system: NCI-H522
HOP-92 = test system: HOP-92
OVCAR-5 = test system: OVCAR-5
SR = test system: SR
OVCAR-4 = test system: OVCAR-4
BT-549 = test system: BT-549

| SMILES | GI50 (ACHN) | GI50 (M14) | GI50 (RPMI-8226) | GI50 (SNB-75) | GI50 (SNB-78) | GI50 (786-0) | GI50 (LXFL 529) | GI50 (UACC-62) | GI50 (HT-29) | GI50 (HOP-18) | GI50 (SF-268) | GI50 (DMS-273) | GI50 (SF-295) | GI50 (EKVX) | GI50 (NCI-H522) | GI50 (HOP-92) | GI50 (OVCAR-5) | GI50 (SR) | GI50 (OVCAR-4) | GI50 (BT-549) |
| --- | --- | --- | --- | --- | --- | --- | --- | --- | --- | --- | --- | --- | --- | --- | --- | --- | --- | --- | --- | --- |
| Cc1cc(C)c(C(=O)OC(c2ccccc2)C(c2ccccc2)N2CCOCC2)c(C)c1 (stereo not drawn) | > 100 µM (inactive) | > 100 µM (inactive) | 6.01 µM (inactive) | > 100 µM (inactive) | > 100 µM (inactive) | > 100 µM (inactive) | > 100 µM (inactive) | > 100 µM (inactive) | > 100 µM (inactive) | > 100 µM (inactive) | > 100 µM (inactive) | > 100 µM (inactive) | > 100 µM (inactive) | > 100 µM (inactive) | > 100 µM (inactive) |  |  |  |  |  |
| COc1ccc(CN(CCN(C)C)c2ccccn2)cc1.Cn1c(=O)c2[nH]c(Br)nc2n(C)c1=O | > 100 µM (inactive) | > 100 µM (inactive) |  | 23.3 µM (inactive) | > 100 µM (inactive) | > 100 µM (inactive) | > 100 µM (inactive) |  | > 100 µM (inactive) | > 100 µM (inactive) | > 100 µM (inactive) |  | > 100 µM (inactive) |  | > 100 µM (inactive) | 22.3 µM (inactive) | > 100 µM (inactive) |  |  |  |
| O=C1OC(c2ccccc2)=N/C1=C/NC(Cc1c[nH]cn1)C(=O)O (stereo not drawn) | > 100 µM (inactive) | > 100 µM (inactive) | > 100 µM (inactive) | > 100 µM (inactive) | > 100 µM (inactive) | > 100 µM (inactive) | > 100 µM (inactive) | > 100 µM (inactive) | > 100 µM (inactive) |  | > 100 µM (inactive) | > 100 µM (inactive) | > 100 µM (inactive) | > 100 µM (inactive) | > 100 µM (inactive) | > 100 µM (inactive) | > 100 µM (inactive) | > 100 µM (inactive) | > 100 µM (inactive) |  |
| CC(C)(C)[Si](C)(C)OC1C(=O)C[C@H]2CCCC[C@@H]12 (stereo partly drawn) | > 100 µM (inactive) | > 100 µM (inactive) | > 100 µM (inactive) | > 100 µM (inactive) | > 100 µM (inactive) | > 100 µM (inactive) | > 100 µM (inactive) | > 100 µM (inactive) | > 100 µM (inactive) | > 100 µM (inactive) | > 100 µM (inactive) | > 100 µM (inactive) | > 100 µM (inactive) | > 100 µM (inactive) |  | 20.2 µM (inactive) | > 100 µM (inactive) |  | > 100 µM (inactive) |  |
| C[C@@]1(CO)[C@H](O)CC[C@@]2(C)[C@H]1CC[C@H]1C[C@@H]3C[C@@]12CC[C@@]3(O)COC(=O)CN | 0.098 µM (active) | 5.15 µM (inactive) | 6.56 µM (inactive) |  |  | 0.923 µM (active) | > 100 µM (inactive) | 2.32 µM (inactive) | 9.25 µM (inactive) | > 76 µM (inactive) | 9.29 µM (inactive) | 0.486 µM (active) |  | 16.4 µM (inactive) |  | 20.4 µM (inactive) |  | 0.811 µM (active) | 49.8 µM (inactive) | 42.3 µM (inactive) |
| O=c1c2ccccc2[nH]c2c(O)ccc(O)c12 | 17.3 µM (inactive) | 15.9 µM (inactive) | 22.8 µM (inactive) | > 10 µM (inactive) | 19 µM (inactive) | 18.8 µM (inactive) | 15.1 µM (inactive) | 16.7 µM (inactive) | 38.6 µM (inactive) |  | 25.4 µM (inactive) | 16.6 µM (inactive) | 17.3 µM (inactive) | > 41.7 µM (inactive) | 15.1 µM (inactive) | 18.8 µM (inactive) | > 76.9 µM (inactive) | 7.33 µM (inactive) | 3.39 µM (inactive) |  |
| O=C(NN1C(=O)C(Cl)C1c1c(O)ccc2ccccc12)c1ccccc1O (stereo not drawn) | > 100 µM (inactive) | > 100 µM (inactive) |  | > 100 µM (inactive) | > 100 µM (inactive) | > 100 µM (inactive) | > 100 µM (inactive) | > 100 µM (inactive) | > 100 µM (inactive) | > 100 µM (inactive) | > 100 µM (inactive) | > 100 µM (inactive) | > 100 µM (inactive) |  | > 100 µM (inactive) |  |  |  | > 100 µM (inactive) |  |
| OCC12C3C4C1C1C2C3C41CO (stereo not drawn) | > 100 µM (inactive) | > 100 µM (inactive) | > 100 µM (inactive) |  | > 100 µM (inactive) | > 100 µM (inactive) | > 100 µM (inactive) | > 100 µM (inactive) | > 100 µM (inactive) | > 100 µM (inactive) | > 100 µM (inactive) |  | > 100 µM (inactive) | > 100 µM (inactive) |  | > 100 µM (inactive) | > 100 µM (inactive) |  | > 100 µM (inactive) |  |
| CC1=C(O)C(=O)C2C(=O)C1C(C)C2c1ccc(Cl)cc1 (stereo not drawn) | > 100 µM (inactive) | > 100 µM (inactive) | > 100 µM (inactive) | 72.3 µM (inactive) | > 100 µM (inactive) | > 100 µM (inactive) | > 100 µM (inactive) | > 100 µM (inactive) | > 100 µM (inactive) |  | > 100 µM (inactive) | > 100 µM (inactive) | > 100 µM (inactive) | > 100 µM (inactive) | > 100 µM (inactive) | > 100 µM (inactive) | > 100 µM (inactive) | > 100 µM (inactive) | > 100 µM (inactive) |  |
